Molecules are shown by their SMILES. Activity calls are given as the source filed them.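 Rule for the calls: active = a tumour-causing dose and a tumour site recorded for mice in at least one sex group; inconclusive = only government mouse studies exist and were judged inadequate; inactive = mouse studies exist but none gave tumours.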

Consider 83 molecules from PubChem BioAssay AID1199 (EPA DSSTox, 2008).

In the data set the test system is mouse carcinogenicity bioassay, TD50 from CPDB. The experiment in a line: DSSTox (CPDBAS) Carcinogenic Potency Database Summary Mouse Bioassay Results. The essentials:
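Values are TD50 carcinogenic potencies from mouse chronic bioassays, taking the most positive result for each sex-species. Sources are published literature and NCI/NTP studies; target sites reflect author-reported positive findings.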

The mark [1] stands for this setting: TD50_Mouse_Note: no positive results, TargetSites_Mouse_Female: no positive results.
Setting [2] is: TargetSites_Mouse_Female: liver.
Setting [3] is: TD50_Mouse_Note: TD50 is harmonic mean of more than one positive test, TargetSites_Mouse_Female: lung, vascular system.
The mark [4] stands for this setting: TargetSites_Mouse_Female: no positive results.
The mark [5] stands for this setting: TD50_Mouse_Note: TD50 is harmonic mean of more than one positive test, TargetSites_Mouse_Female: liver, vascular system.
The mark [6] stands for this setting: TargetSites_Mouse_BothSexes: liver, mammary gland.
Setting [7] is: TD50_Mouse_Note: TD50 is harmonic mean of more than one positive test, TargetSites_Mouse_Female: liver.
The mark [8] stands for this setting: TD50_Mouse_Note: TD50 is harmonic mean of more than one positive test, TargetSites_Mouse_Female: lung.

For `O=C(O)COc1ccc(Cl)cc1Cl`, the outcome under setting [1] was “inactive; no positive results”.

In the case of `NC(=O)Cc1c([O-])on[n+]1Cc1ccccc1`, under setting [2], the Potency was 0.0437 mmol/kg/day.

On to `C/C=C/C=C/C(=O)O`, for which, under setting [1], the outcome is “inactive; no positive results”.

For `CC(C)O`, the outcome under setting [1] is “inactive; no positive results”.

As for `NNc1nc(-c2ccc([N+](=O)[O-])cc2)cs1`, for the setting “TargetSites_Mouse_Female: hematopoietic system”, the Potency is 0.0449 mmol/kg/day.

`C=Cc1cccc[n+]1[O-]`: the result under setting [1] was inactive.

For the molecule `Oc1c(Cl)cc(Cl)c(Cl)c1Cc1c(O)c(Cl)cc(Cl)c1Cl`, the outcome under setting [1] was “inactive; no positive results”.

As to `CCN(N)C=O`, the Potency under setting [3] was 0.0318 mmol/kg/day.

For `CCCN(CCC)c1c([N+](=O)[O-])cc(C(F)(F)F)cc1[N+](=O)[O-]`, for the setting “TargetSites_Mouse_Female: liver, lung, stomach”, the Potency was 0.984 mmol/kg/day.

For the molecule `CNC[C@H](O)c1cccc(O)c1`, the outcome under setting [1] was “inactive; no positive results”.

Regarding `Nc1c(F)c(N)c(F)c(F)c1F`, under setting [4], the Potency is 0.341 mmol/kg/day.

Regarding `Cc1ccc([N+](=O)[O-])cc1N`, under setting [5], the Potency is 1.82 mmol/kg/day.

Take `OCC(CO)N[C@H]1C[C@](O)(CO)[C@@H](O)[C@H](O)[C@H]1O`: the outcome under setting [1] was “inactive; no positive results”.

As to `COP(=S)(OC)Oc1ccc(SC)c(C)c1`, under setting [1], the outcome was “inactive; no positive results”.

As to `C=CCc1ccc(O)c(OC)c1`, the outcome under setting [1] is “inactive; no positive results”.

For the molecule `O=[As]O`, where the note is “TD50_Mouse_Note: no positive results, TargetSites_Mouse_BothSexes: no positive results”, the outcome was inactive.

For the molecule `CCCCC1C(=O)N(c2ccccc2)N(c2ccccc2)C1=O`, under setting [4], the Potency was 1.14 mmol/kg/day.

Take `Cc1cc2c(nc1N)[nH]c1ccccc12`: under setting [5], the Potency was 0.0863 mmol/kg/day.

On to `NC(=O)N(CCO)N=O`, for which the Potency (TD50_Mouse_Note: TD50 is harmonic mean of more than one positive test, TargetSites_Mouse_Female: hematopoietic system) is 0.00615 mmol/kg/day.

As to `CC(=O)NNC(C)=O`, the outcome under setting [1] is “inactive; no positive results”.

As for `Cc1cccc(Nc2cc(Cl)nc(SCC(=O)NCCO)n2)c1C`, under setting [2], the Potency was 0.122 mmol/kg/day.

With `O=C(c1ccccc1)C(O)c1ccccc1` (stereo not drawn), under setting [1], the outcome was “inactive; no positive results”.

Regarding `ClCOCCCCOCCl`, the outcome under setting [1] was inactive.

Consider `COc1cc(/C=N/NC(=O)c2ccncc2)ccc1O`, for which, under setting [6], the Potency is 0.101 mmol/kg/day.

As to `Cc1c(N)cccc1N`, the outcome under setting [1] is “inactive; no positive results”.

As to `Cc1cc(N=Nc2ccccc2C)ccc1N`, for the setting “TD50_Mouse_Note: no positive results”, the outcome was “inactive; no positive results”.

Regarding `CCS(=O)(=O)c1ccc(S(N)(=O)=O)c2ccccc12`, the Potency (TD50_Mouse_Note: TD50 is harmonic mean of more than one positive test, TargetSites_Mouse_Female: urinary bladder) was 0.0705 mmol/kg/day.

As to `O=S(=O)(c1ccc(Cl)cc1)c1cc(Cl)c(Cl)cc1Cl`, the outcome under setting [1] is “inactive; no positive results”.

As for `O=CCCl`, the Potency under setting [4] is 0.46 mmol/kg/day.

Consider `ClC1=C(Cl)[C@]2(Cl)[C@@H]3[C@@H]4C[C@@H]([C@H]5O[C@@H]45)[C@@H]3[C@@]1(Cl)C2(Cl)Cl`, for which the Potency (TD50_Mouse_Note: TD50 is harmonic mean of more than one positive test, harmonic mean of TD50 includes a value for upper 99% confidence li, TargetSites_Mouse_Female: liver) was 0.00239 mmol/kg/day.

With `IC(I)I`, the outcome under setting [1] is “inactive; no positive results”.

Regarding `ClC(Cl)=C(Cl)Cl`, the Potency under setting [7] was 0.953 mmol/kg/day.

For the molecule `NC(=S)Nc1cccc2ccccc12`, the outcome under setting [1] is “inactive; no positive results”.

Consider `Cc1ccccc1OCC(O)CNCCn1cc(C)c(=O)[nH]c1=O` (stereo not drawn), for which the outcome under setting [1] was “inactive; no positive results”.

Take `ClC1C2(Cl)C3C4C5OC5C5C4C1(Cl)C(Cl)(C53)C2(Cl)Cl` (stereo not drawn): the outcome under setting [1] was “inactive; no positive results”.

As for `C=C(Cl)Cl`, the Potency (TD50_Mouse_Note: TD50 is harmonic mean of more than one positive test, TargetSites_Mouse_Female: lung, mammary gland, vascular system) is 0.357 mmol/kg/day.

Turning to `COc1cc2c(c3oc(=O)c4c(c13)CCOC4=O)C1C=COC1O2` (stereo not drawn), under “TD50_Mouse_Note: TD50_Mouse_mmol was not calculated for this mixture, but Activiity Score is assigned value of 50 to indicate active”, the outcome was “active; hematopoietic system”.

Consider `CN(C)N`, for which the Potency under setting [3] was 0.0659 mmol/kg/day.

With `C=CC=C`, the Potency (TD50_Mouse_Note: TD50 is harmonic mean of more than one positive test, greater than ten-fold variation among TD50 values for positive res, TargetSites_Mouse_Female: harderian gland, hematopoietic system, liver, lung, mammary gland, ovary, stomach, vascular system) was 0.257 mmol/kg/day.

In the case of `C/C=C/C(=O)Oc1c(C(C)CCCCCC)cc([N+](=O)[O-])cc1[N+](=O)[O-]` (stereo not drawn), under setting [1], the outcome was “inactive; no positive results”.

Regarding `CC(=O)[O][Sn]([c]1ccccc1)([c]1ccccc1)[c]1ccccc1`, under setting [1], the outcome is “inactive; no positive results”.

Take `COc1c(Cl)c(Cl)c([N+](=O)[O-])c(Cl)c1Cl`: under setting [1], the outcome was “inactive; no positive results”.

On to `CC(C)(C)NC[C@H](O)COc1cccc2c1CCCC2=O`, for which, under setting [1], the outcome is “inactive; no positive results”.

Consider `CNC(=S)N(C)C`, for which the outcome under setting [1] was “inactive; no positive results”.

For the molecule `OCCN(CCO)CCO`, the Potency (TD50_Mouse_Note: TD50 is harmonic mean of more than one positive test, TargetSites_Mouse_Female: all tumor bearing animals) was 0.67 mmol/kg/day.

On to `CC(Oc1ccc(Cl)cc1Cl)C(=O)O` (stereo not drawn), for which the outcome under setting [1] was “inactive; no positive results”.

With `CCCN(N)C=O`, the Potency (TD50_Mouse_Note: TD50 is harmonic mean of more than one positive test, TargetSites_Mouse_Female: gall bladder, liver, lung) is 0.061 mmol/kg/day.

As for `C=CC1CC=CCC1` (stereo not drawn), the Potency (TargetSites_Mouse_Female: ovary) is 0.98 mmol/kg/day.

Take `CNC(=O)Oc1cccc2c1OC(C)(C)C2`: the outcome under setting [1] was “inactive; no positive results”.

With `COc1cc(-c2ccc(N)c(OC)c2)ccc1N`, the Potency (TD50_Mouse_Note: no positive results are statistically significant, TargetSites_Mouse_Female: no positive results) is 0.233 mmol/kg/day.

In the case of `NNC(=O)c1cccnc1`, the Potency under setting [8] was 1.66 mmol/kg/day.

Turning to `CC(=O)NNC(=O)c1ccncc1`, the Potency under setting [8] was 1.84 mmol/kg/day.

Take `Nc1ccc(N=Nc2ccc(-c3ccc(N=Nc4c(S(=O)(=O)O)cc5cc(S(=O)(=O)O)c(N=Nc6ccccc6)c(O)c5c4N)cc3)cc2)c(N)c1`: the Potency under setting [6] is 0.0916 mmol/kg/day.

For `O[C@H]([C@H](O)[C@@H](O)CBr)[C@H](O)CBr`, under “TD50_Mouse_Note: positive test results only by intraperitoneal or intravenous injection, TD50 is harmonic mean of more than one positive, TargetSites_Mouse_Female: hematopoietic system, lung”, the Potency was 0.0357 mmol/kg/day.

Regarding `CN(N=O)c1ncnc2c1ncn2[C@@H]1O[C@H](CO)[C@@H](O)[C@H]1O`, under “TD50_Mouse_Note: TD50 is harmonic mean of more than one positive test, TargetSites_Mouse_Female: lung, mammary gland, uterus”, the Potency was 0.059 mmol/kg/day.

On to `CN(C)c1ccc(C(=N)c2ccc(N(C)C)cc2)cc1`, for which the Potency under setting [7] was 0.206 mmol/kg/day.

On to `O=NN1CCCCC1`, for which the Potency is 0.0114 mmol/kg/day.

`CCCCC(CC)COC(=O)CCCCC(=O)OCC(CC)CCCC` (stereo not drawn): under setting [7], the Potency was 10.5 mmol/kg/day.

For `CC1CO1` (stereo not drawn), the Potency (TD50_Mouse_Note: TD50 is harmonic mean of more than one positive test, TargetSites_Mouse_Female: nasal cavity) was 15.7 mmol/kg/day.

On to `[O]=[Mo](=[O])=[O]`, for which the Potency (TD50_Mouse_Note: TD50 is harmonic mean of more than one positive test, greater than ten-fold variation among TD50 values for positive res, TargetSites_Mouse_Female: lung) is 0.0426 mmol/kg/day.

For the molecule `Cc1ccc(NC(N)=O)cc1`, under setting [4], the Potency was 1.37 mmol/kg/day.

Turning to `Cc1cc(-c2ccc(N)c(C)c2)ccc1N`, under setting [4], the Potency is 0.1 mmol/kg/day.

Take `CBr`: the outcome under setting [1] was “inactive; no positive results”.

For `Nc1ccc(N)cc1`, the outcome under setting [1] was “inactive; no positive results”.

Consider `Cl[C@H]1OCCO[C@@H]1Cl`, for which the outcome under setting [1] was inactive.

Turning to `C=C(C)[C@H]1CC=C(C)C(=O)C1`, under setting [1], the outcome was “inactive; no positive results”.

Consider `O=[N+]([O-])c1cc([N+](=O)[O-])c(Cl)c(Cl)c1Cl`, for which, under setting [1], the outcome was “inactive; no positive results”.

Consider `CC(Cl)(Cl)Cl`, for which, under setting [1], the outcome was “inactive; no positive results”.

For the molecule `CC(=O)Nc1ccc(N=Nc2cc(C)ccc2O)cc1`, the Potency under setting [2] is 3.79 mmol/kg/day.

For the molecule `CN(Cc1cnc2nc(N)nc(N)c2n1)c1ccc(C(=O)N[C@@H](CCC(=O)O)C(=O)O)cc1`, under setting [1], the outcome was “inactive; no positive results”.

In the case of `Cc1cc(O)c(C)c2c1OC(C)(CCCC(C)CCCC(C)CCCC(C)C)CC2` (stereo not drawn), the Potency was 8.66 mmol/kg/day.

On to `CN(C)CCOC(c1ccccc1)c1ccccc1`, for which the outcome under setting [1] was “inactive; no positive results”.

Turning to `O=C(OOC(=O)c1ccccc1)c1ccccc1`, the result (TargetSites_Mouse_BothSexes: no positive results) was inactive.

For `O=NN1CCCCCC1`, the Potency (TD50_Mouse_Note: TD50 is harmonic mean of more than one positive test, TargetSites_Mouse_Female: esophagus, liver, lung, nasal cavity, oral cavity, stomach) was 0.00412 mmol/kg/day.

For `CN1C(=O)CN=C(c2ccccc2)c2cc(Cl)ccc21`, under setting [1], the outcome is “inactive; no positive results”.

As to `c1ccc2sc(SN3CCOCC3)nc2c1`, under setting [1], the outcome was “inactive; no positive results”.

For the molecule `C1N2CN3CN1CN(C2)C3`, under setting [1], the outcome is “inactive; no positive results”.

In the case of `CCC1CO1` (stereo not drawn), the outcome under setting [1] was “inactive; no positive results”.

On to `CC(C)C=O`, for which the outcome under setting [1] is “inactive; no positive results”.

Consider `O=S1OCCO1`, for which, under setting [1], the result was inactive.

With `S=C(S)NCCNC(=S)S`, the outcome under setting [1] is “inactive; no positive results”.

`CC(O)COC(C)(C)C` (stereo not drawn): the Potency under setting [7] was 14.1 mmol/kg/day.

Consider `O=NN1CCCC1`, for which the Potency was 0.00678 mmol/kg/day.
